Results as given in US11497752B2, “Compounds and uses thereof” (Foghorn Therapeutics Inc., priority 2018, dated 2022).
pIC50: −log10 of the molar value.

Tests used:
[1] = target: BRM (Homo sapiens, UniProt P51531); assay: ATPase catalytic activity of BRM (ADP-Glo in vitro biochemical assay)
[2] = target: BRG-1 (Homo sapiens, UniProt P51532); assay: ATPase catalytic activity of BRG-1 (ADP-Glo in vitro biochemical assay)
BRG-1, sequence (P51532 whole entry): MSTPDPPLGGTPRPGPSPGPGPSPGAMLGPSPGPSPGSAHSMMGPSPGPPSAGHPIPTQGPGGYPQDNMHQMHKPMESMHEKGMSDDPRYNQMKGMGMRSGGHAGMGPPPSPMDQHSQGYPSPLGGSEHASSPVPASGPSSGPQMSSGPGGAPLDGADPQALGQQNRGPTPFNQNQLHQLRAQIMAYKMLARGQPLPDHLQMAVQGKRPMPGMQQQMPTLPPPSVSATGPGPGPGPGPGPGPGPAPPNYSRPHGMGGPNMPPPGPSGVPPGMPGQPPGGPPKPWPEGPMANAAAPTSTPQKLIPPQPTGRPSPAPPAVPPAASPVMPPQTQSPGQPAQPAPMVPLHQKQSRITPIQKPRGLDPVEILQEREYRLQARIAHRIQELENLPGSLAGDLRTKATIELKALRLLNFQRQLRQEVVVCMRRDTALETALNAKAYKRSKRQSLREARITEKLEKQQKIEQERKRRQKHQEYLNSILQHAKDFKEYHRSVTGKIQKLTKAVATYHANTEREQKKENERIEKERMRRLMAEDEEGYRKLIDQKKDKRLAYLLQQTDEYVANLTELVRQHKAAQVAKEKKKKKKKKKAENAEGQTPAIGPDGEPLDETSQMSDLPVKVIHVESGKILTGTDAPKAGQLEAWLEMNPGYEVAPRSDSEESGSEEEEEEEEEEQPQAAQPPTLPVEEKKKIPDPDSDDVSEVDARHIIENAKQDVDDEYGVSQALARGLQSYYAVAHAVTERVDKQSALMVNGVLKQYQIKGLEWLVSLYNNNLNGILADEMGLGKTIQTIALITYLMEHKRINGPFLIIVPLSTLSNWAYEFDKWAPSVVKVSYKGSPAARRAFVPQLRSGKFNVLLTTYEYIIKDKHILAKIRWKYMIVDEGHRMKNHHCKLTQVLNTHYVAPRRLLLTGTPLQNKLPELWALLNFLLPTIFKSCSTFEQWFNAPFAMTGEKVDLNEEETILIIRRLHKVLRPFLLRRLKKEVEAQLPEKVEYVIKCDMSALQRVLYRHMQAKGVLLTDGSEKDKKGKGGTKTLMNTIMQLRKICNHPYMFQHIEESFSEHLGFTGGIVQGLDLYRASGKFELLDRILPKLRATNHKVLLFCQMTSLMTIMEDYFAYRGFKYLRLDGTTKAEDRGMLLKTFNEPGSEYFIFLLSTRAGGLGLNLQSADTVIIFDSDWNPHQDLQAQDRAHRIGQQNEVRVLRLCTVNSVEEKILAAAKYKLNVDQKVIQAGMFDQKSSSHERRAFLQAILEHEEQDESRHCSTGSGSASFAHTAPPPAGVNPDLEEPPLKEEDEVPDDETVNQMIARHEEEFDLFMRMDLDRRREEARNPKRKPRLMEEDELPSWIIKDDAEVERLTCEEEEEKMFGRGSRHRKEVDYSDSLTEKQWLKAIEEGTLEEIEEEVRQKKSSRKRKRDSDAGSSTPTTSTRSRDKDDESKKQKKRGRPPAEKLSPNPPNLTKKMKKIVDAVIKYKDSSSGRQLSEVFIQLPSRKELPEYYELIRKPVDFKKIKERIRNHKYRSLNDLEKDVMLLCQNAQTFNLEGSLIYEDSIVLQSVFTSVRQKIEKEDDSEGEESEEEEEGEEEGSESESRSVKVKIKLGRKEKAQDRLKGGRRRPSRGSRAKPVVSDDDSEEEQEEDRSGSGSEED

BRM, sequence (P51531 whole entry): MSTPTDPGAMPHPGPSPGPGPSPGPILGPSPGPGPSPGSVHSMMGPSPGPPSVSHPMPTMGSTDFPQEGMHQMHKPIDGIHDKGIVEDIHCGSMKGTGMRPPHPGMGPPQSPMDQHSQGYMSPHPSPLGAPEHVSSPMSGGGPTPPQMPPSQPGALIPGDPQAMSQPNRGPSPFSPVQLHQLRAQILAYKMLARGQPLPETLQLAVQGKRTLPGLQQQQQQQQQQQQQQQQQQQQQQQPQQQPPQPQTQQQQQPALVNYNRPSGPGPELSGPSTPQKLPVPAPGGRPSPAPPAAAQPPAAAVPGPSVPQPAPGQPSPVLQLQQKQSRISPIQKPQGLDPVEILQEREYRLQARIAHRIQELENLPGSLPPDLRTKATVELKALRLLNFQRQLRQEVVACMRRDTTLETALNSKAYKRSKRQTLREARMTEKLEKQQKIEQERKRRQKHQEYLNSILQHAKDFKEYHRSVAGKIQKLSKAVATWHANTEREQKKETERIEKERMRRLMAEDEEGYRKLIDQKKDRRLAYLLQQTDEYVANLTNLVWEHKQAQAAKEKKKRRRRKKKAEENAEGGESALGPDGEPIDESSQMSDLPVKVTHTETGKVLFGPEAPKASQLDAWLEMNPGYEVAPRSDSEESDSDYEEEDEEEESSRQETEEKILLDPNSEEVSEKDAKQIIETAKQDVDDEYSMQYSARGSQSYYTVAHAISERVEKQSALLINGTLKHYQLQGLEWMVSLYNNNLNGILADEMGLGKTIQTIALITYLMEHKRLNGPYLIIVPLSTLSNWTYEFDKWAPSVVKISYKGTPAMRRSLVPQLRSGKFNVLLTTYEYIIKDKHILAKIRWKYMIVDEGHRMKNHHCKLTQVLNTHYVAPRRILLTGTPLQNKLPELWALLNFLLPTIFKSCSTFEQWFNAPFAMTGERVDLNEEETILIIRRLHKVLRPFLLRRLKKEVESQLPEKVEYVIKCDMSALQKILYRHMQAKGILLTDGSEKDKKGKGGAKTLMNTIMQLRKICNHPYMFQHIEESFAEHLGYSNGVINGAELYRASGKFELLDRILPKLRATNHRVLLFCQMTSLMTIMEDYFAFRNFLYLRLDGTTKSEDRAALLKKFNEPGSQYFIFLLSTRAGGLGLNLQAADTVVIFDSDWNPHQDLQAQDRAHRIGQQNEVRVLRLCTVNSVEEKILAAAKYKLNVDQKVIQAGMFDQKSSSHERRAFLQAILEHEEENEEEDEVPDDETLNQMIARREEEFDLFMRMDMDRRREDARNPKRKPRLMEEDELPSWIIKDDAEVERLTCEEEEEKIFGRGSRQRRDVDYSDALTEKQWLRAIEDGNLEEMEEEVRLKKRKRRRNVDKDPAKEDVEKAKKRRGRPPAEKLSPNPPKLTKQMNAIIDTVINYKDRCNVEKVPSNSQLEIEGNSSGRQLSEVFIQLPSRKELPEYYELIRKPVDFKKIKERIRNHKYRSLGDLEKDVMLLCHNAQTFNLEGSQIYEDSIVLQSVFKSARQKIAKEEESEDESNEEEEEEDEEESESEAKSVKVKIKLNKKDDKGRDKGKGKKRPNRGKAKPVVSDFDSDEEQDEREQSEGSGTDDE

pIC50 [1] | BRM Max % Inhibition ([1]; Table 6) | pIC50 [2] | BRG1 Max % Inhibition ([2]; Table 6) | BRM Max % Inhibition ([1]; Table 5) | BRG1 Max % Inhibition ([2]; Table 5) | SMILES
6.00 to 7.00 | >95% | 5.00 to 6.00 | >95% | – | – | CSCC[C@H](NC(=O)c1ccc(N)cc1)C(=O)Nc1nc(-c2ccc(C#N)c(-c3ccccc3)c2)cs1 [Compound 119, (S)-4-amino-N-(1-((4-(6-cyano-[1,1′-biphenyl]-3-yl)thiazol-2-yl)amino)-4-(methylthio)-1-oxobutan-2-yl)benzamide]
5.00 to 6.00 | – | 5.00 to 6.00 | – | >70% | >50% | CS(=O)(=O)c1cccc(C(=O)NCC(=O)Nc2nc(-c3ccccc3)cs2)c1 [Compound 23, 3-methylsulfonyl-N-[2-oxo-2-[(4-phenylthiazol-2-yl)amino]ethyl]benzamide]
6.00 to 7.00 | >95% | 6.00 to 7.00 | >95% | – | – | NCCn1ccc2ccc(-c3csc(NC(=O)CNC(=O)c4ccc(N)cc4)n3)cc2c1=O [Compound 171, 4-amino-N-(2-((4-(2-(2-aminoethyl)-1-oxo-1,2-dihydroisoquinolin-7-yl)thiazol-2-yl)amino)-2-oxoethyl)benzamide]
5.00 to 6.00 | – | < 5.00 | – | >60% | >50% | CSCC[C@H](NC(=O)c1cc2ccccc2s1)C(=O)Nc1nc(-c2ccccc2)cs1 [Compound 71, (S)—N-(4-(methylthio)-1-oxo-1-((4-phenylthiazol-2-yl)amino)butan-2-yl)benzo[b]thiophene-2-carboxamide]
5.00 to 6.00 | – | 5.00 to 6.00 | – | >70% | >60% | CSCC[C@H](NC(=O)c1cc(S(=O)(=O)N(C)C)cs1)C(=O)Nc1nc(-c2ccccc2)cs1 [Compound 64, 4-(dimethylsulfamoyl)-N-[(1S)-3-methylsulfanyl-1-[(4-phenylthiazol-2-yl)carbamoyl]propyl]thiophene-2-carboxamide]
> 7.00 | >70% | > 7.00 | >50% | – | – | CS(=O)(=O)c1cccc(C(=O)NCC(=O)Nc2nc(-c3cccc(-c4ccncn4)c3)cs2)c1 [Compound 90, 3-(methylsulfonyl)-N-(2-oxo-2-((4-(3-(pyrimidin-4-yl)phenyl)thiazol-2-yl)amino)ethyl)benzamide]
< 5.00 | – | < 5.00 | – | >90% | >90% | CSCC[C@H](NC(=O)c1cccc(O)c1)C(=O)Nc1nc(-c2ccccc2)cs1 [Compound 59, (S)-3-hydroxy-N-(4-(methylthio)-1-oxo-1-((4-phenylthiazol-2-yl)amino)butan-2-yl)benzamide]
> 7.00 | >95% | > 7.00 | >95% | – | – | CN(CC(=O)O)c1cc(-c2cccc(-c3csc(NC(=O)CNC(=O)c4ccc(N)cc4)n3)c2)ccn1 [Compound 200, 2-[[4-[3-[2-[[2-[(4-aminobenzoyl)amino]acetyl]amino]thiazol-4-yl]phenyl]-2-pyridyl]-methyl-amino]acetic acid]
5.00 to 6.00 | – | < 5.00 | – | >90% | >70% | CN(C)S(=O)(=O)c1cccc(C(=O)NCC(=O)Nc2nc(-c3cccc(C#N)c3)cs2)c1 [Compound 8, N-[2-[[4-(3-cyanophenyl)thiazol-2-yl]amino]-2-oxo-ethyl]-3-(dimethylsulfamoyl)benzamide]
< 5.00 | – | < 5.00 | – | >70% | >50% | CN(C)S(=O)(=O)c1cccc(C(=O)N[C@@H](CN)C(=O)Nc2nc(-c3ccccc3)cs2)c1 [Compound 25, (S)—N-(3-amino-1-oxo-1-((4-phenylthiazol-2-yl)amino)propan-2-yl)-3-(N,N-dimethylsulfamoyl)benzamide]
< 5.00 | – | < 5.00 | – | >50% | >60% | CSCC[C@H](NC(=O)c1cccc(CN)c1)C(=O)Nc1nc(-c2ccccc2)cs1 [Compound 75]
6.00 to 7.00 | >50% | 6.00 to 7.00 | >50% | – | – | CS(=O)(=O)c1ccc(-c2cccc(-c3csc(NC(=O)CNC(=O)c4ccc(N)cc4)n3)c2)cc1 [Compound 134, 4-amino-N-(2-((4-(4′-(methylsulfonyl)-[1,1′-biphenyl]-3-yl)thiazol-2-yl)amino)-2-oxoethyl)benzamide]
< 5.00 | – | < 5.00 | – | >60% | >60% | CSCC[C@H](NC(=O)c1ccccc1O)C(=O)Nc1nc(-c2ccccc2)cs1 [Compound 69, 2-hydroxy-N-[(1S)-3-methylsulfanyl-1-[(4-phenylthiazol-2-yl)carbamoyl]propyl]benzamide]
> 7.00 | >95% | > 7.00 | >95% | – | – | Cn1ccc2ccc(-c3csc(NC(=O)CNC(=O)c4ccc(N)cc4)n3)cc2c1=O [Compound 143, 4-amino-N-(2-((4-(2-methyl-1-oxo-1,2-dihydroisoquinolin-7-yl)thiazol-2-yl)amino)-2-oxoethyl)benzamide]
< 5.00 | – | < 5.00 | – | >80% | >60% | CN(C)S(=O)(=O)c1cccc(C(=O)NCC(=O)Nc2nc(-c3ccccc3Br)cs2)c1 [Compound 18, N-[2-[[4-(2-bromophenyl)thiazol-2-yl]amino]-2-oxo-ethyl]-3-(dimethylsulfamoyl)benzamide]
6.00 to 7.00 | >80% | 6.00 to 7.00 | >80% | – | – | Nc1ccc(C(=O)NCC(=O)Nc2nc(-c3ccc4cncnc4c3)cs2)cc1 [Compound 240, 4-amino-N-[2-oxo-2-[(4-quinazolin-7-ylthiazol-2-yl)amino]ethyl]benzamide]
6.00 to 7.00 | >90% | 6.00 to 7.00 | >80% | – | – | Nc1ccc(C(=O)NCC(=O)Nc2nc(-c3cccc(-c4cccc(F)c4)c3)cs2)cc1 [Compound 152, 4-amino-N-(2-((4-(3′-fluoro-[1,1′-biphenyl]-3-yl)thiazol-2-yl)amino)-2-oxoethyl)benzamide]
6.00 to 7.00 | >70% | 5.00 to 6.00 | >70% | – | – | CNC(=O)c1ccc(-c2cccc(-c3csc(NC(=O)CNC(=O)c4ccc(N)cc4)n3)c2)cc1 [Compound 130, 3′-(2-(2-(4-aminobenzamido)acetamido)thiazol-4-yl)-N-methyl-[1,1′-biphenyl]-4-carboxamide]
6.00 to 7.00 | >95% | 6.00 to 7.00 | >80% | – | – | Cc1nc(-c2cccc(-c3csc(NC(=O)CNC(=O)c4ccc(N)cc4)n3)c2)cn1C [Compound 222, 4-amino-N-[2-[[4-[3-(1,2-dimethylimidazol-4-yl)phenyl]thiazol-2-yl]amino]-2-oxo-ethyl]benzamide]
> 7.00 | >95% | > 7.00 | >95% | – | – | CN(C)Cc1cc(-c2cccc(-c3csc(NC(=O)CNC(=O)c4ccc(N)cc4)n3)c2)ccn1 [Compound 168, 4-amino-N-(2-((4-(3-(2-((dimethylamino)methyl)pyridin-4-yl)phenyl)thiazol-2-yl)amino)-2-oxoethyl)benzamide]
